Assay results as given in patent US10947260B2, “Phosphinolactone derivatives and pharmaceutical uses thereof” (INSTITUT NATIONAL DE LA SANTE ET DE LA RECHERCHE MEDICALE …, priority 2016, dated 2021).

What was measured:
[1] = test system: mice treated with peptide Aβ25-35; assay: In vivo screening of derivatives as neuroprotectors (spontaneous alternation, passive avoidance, ROS level), Aβ25-35 model; conditions: 0.3 mg/kg IP
Procedure: FIG. 7: Screening of phosphinolactones as neuroprotectors in mice treated with peptide Aβ25-35: (a) spontaneous alternation; (b) passive avoidance step-through latency; (c) Levels of reactive oxygen species in hippocampus. The mice were given compound 3b (0.3, 0.7 mg/kg IP) or a dose of each compound (0.3 mg/kg IP) 20 min before I′Aβ25-35 or the control peptide Sc.Aβ (9 nmol ICV). The animals were tested in the Y-maze on Day 7 after the ICV injections and for passive avoidance on Days 8-9, and then sacrificed. In each graph at (a-c), the 50% protection level compared with the deficit induced by Aβ25-35 is plotted as a dotted line. It is to be noted that at (a), the column represents the median and the error bars represent the deviations 25%-75% (=asymmetric deviations). n=12 at (a, b) and 5-6 at (c). ANOVA on groups 1-4: F(3.63)=7.95, p<0.001 at (b); H=24.1, p<0.0001 at (c); F(3.44)=6.33, p<0.01 at (d). *p<0.05, **p<0.01, ***p<0.001 compared with group (Sc.Aβ+V); #p<0.05, ##p<0.01, ###p<0.001 compared with group (Aβ25-35+V); Dunnett test at (a, c) and Dunn at (b). The values of the groups 5-12 (screened compounds) were analysed by t-test at (a, c) or Mann-Whitney at (b).
From the molecules derived from the synthesis, a panel of 8 derivatives was selected and screened for potential neuroprotective efficacy. The compounds were injected at a dose of 0.3 mg/kg IP, i.e. the maximum non-active dose of 3b and compared with 3b injected at 0.3 and 0.7 mg/kg IP. The compounds were injected […] before the Aß25-35 peptide, and the mice were tested for spontaneous alternation on Day 7, passive avoidance on Days 8 and 9 and the ROS level was measured in the hippocampus (FIG. 7). For each response (spontaneous alternation: FIG. 7a; step-through latency in passive avoidance: FIG. 7b, and DCF fluorescence level: FIG. 7c), a 50% level of the effect between the values of the ScAß and Aß25-35 animals was taken as criterion of efficacy. […] Compound 3c is an isomer at the position of the chlorine atom of 3b. Regarding compound 3n, this has a 5-pyrimidyl group attached to the phosphorus atom, and for compound 3l it is a 4-pyridinyl group.

[2] = test system: mice treated with scopolamine; assay: Passive avoidance, scopolamine amnesia model; type: in vivo
Procedure: (§1) FIG. 5: Anti-amnesic effect of compound 3b in mice treated with scopolamine: (a, b) spontaneous alternation in Y-maze, and (c, d) passive avoidance. The mice were given compound 3b (0.03-1.5 mg/kg IP) 10 min before scopolamine (0.5 mg/kg SC), 20 min before the Y-maze session or passive avoidance training. Y-maze test: (a) spontaneous alternation and (b) total number of arm entries; retention of passive avoidance: (c) step-through latency and (d) escape latency. ANOVA: F(6.94)=5.32, p<0.0001 at (a); F(6.94)=10.6, p<0.0001 at (b); H=31.4, p<0.0001 at (c); H=24.3, p<0.001 at (d); n=12-19 per group. *p<0.05, **p<0.01, ***p<0.001 compared with group (Sc.Aβ+V); #p<0.05, ##p<0.01, ###p<0.001 compared with group (Aβ25-35+V); Dunnett test at (a, b) and Dunn at (c, d).
FIG. 6: Analysis of the antagonism of anti-amnesic effects of compound 3b in mice treated with scopolamine: (a, c, e) spontaneous alternation in Y-maze, and (b, d, f) step-through latency at recall session of passive avoidance. The mice were treated with methyllycaconitine (MLA, 1 or 3 mg/kg IP), dihydro-ß-erythroidine (DHßE, 1 or 3 mg/kg IP), or NE100 (1 mg/kg IP), simultaneously with compound 3b (0.1 mg/kg IP) 10 min before scopolamine (S, 0.5 mg/kg SC), 20 min before behavioural session. […]
The apparatus contained two compartments (15×20×15 cm in height) with one light part having walls in white PVC and the other dark with walls in black PVC and a grid floor. […] Step-through latency (STL) i.e. the time taken to enter the dark compartment and the number of cries, were recorded. […] Step-through latency was recorded up to 300 s.
(§2) Finally, a first mechanistic analysis of the pharmacological effect in vivo of compound 3b was carried out. With the objective of confirming that the compound, neuroprotective against amyloid toxicity, could also be anti-amnesic in a pharmacological amnesia model, we first determined its effectiveness against the amnesic effects of scopolamine. […]

[3] = test system: mice treated with scopolamine; assay: Spontaneous alternation in Y-maze, scopolamine amnesia model; type: in vivo
Procedure: as §1
FIG. 6: Analysis of the antagonism of anti-amnesic effects of compound 3b in mice treated with scopolamine: (a, c, e) spontaneous alternation in Y-maze, and (b, d, f) step-through latency at recall session of passive avoidance. The mice were treated with methyllycaconitine (MLA, 1 or 3 mg/kg IP), dihydro-ß-erythroidine (DHßE, 1 or 3 mg/kg IP), or NE100 (1 mg/kg IP), simultaneously with compound 3b (0.1 mg/kg IP) 10 min before scopolamine (S, 0.5 mg/kg SC), 20 min before behavioural session. ANOVA: F(5.87)=7.19, p<0.0001 at (a); H=31.3, p<0.0001 at (b); F(5.82)=5.82, p<0.0001 at (c); H=28.8, p<0.0001 at (d); F(4.77)=10.0, p<0.0001 at (e); H=30.5, p<0.0001 at (f); n=12-17 per group. *p<0.05, **p<0.01, ***p<0.001 compared with group (Sc.Aβ+V); #p<0.05, ##p<0.01, ###p<0.001 compared with group (Aβ25-35+V); Dunnett test at (a, b) and Dunn at (c, d).
The animals were tested for spontaneous alternation performance in a Y-maze, an index of spatial working memory. The Y-maze was in grey PVC. Each arm was 40 cm long, 13 cm high, 3 cm wide at the base and 10 cm wide in the upper part, and converging at an equal angle. Each mouse was placed at one end of an arm and was able to move freely through the maze during an 8-min session. The series of arm entries, including any returns in the same arm were visually analysed. Alternation is defined as being consecutive entries in three different arms. The maximum number of alternations is therefore the total number of arm entries less two, and alternation percentage is calculated as (actual alternations/maximum possible alternations)×100. […]
as §2

[4] = test system: mice; assay: Forced swim test; type: in vivo
Procedure: FIG. 13: Assays of compound 3b as positive modulator of the sigma-1 protein. […] Male Swiss mice aged 7 weeks (n=10-12 per group) were forced to swim for 15 min on Day 1 and 6 min on Day 2. They were given NE-100 (10 mg/kg ip), 10 min before compound 3b (10 mg/kg ip) and 20 min before the session of Day 2. Immobility was measured over the last 5 minutes of the session. The vehicle solution was distilled water. F(3.42)=4.45, p<0.01; **p<0.01 vs. group V/V, ##p<0.01 vs. group V/3b, Dunnet test. […] Wild-type mice (Wt, n=14-15) and S1R KO mice (n=9-10) were forced to swim 15 min on Day 1 and 6 min on Day 2. They were given compound 3b (10 mg/kg ip) 20 min before the session on Day 2. Immobility was measured during the last 5 minutes of the session. The vehicle solution was distilled water. F(3.49)=6.64, p<0.001; **p<0.01 vs. group Wt/V, Dunnett test. […] Male Swiss mice aged 7 weeks (n=8-23 per group) were forced to swim for 15 min on Day 1 and 6 min on Day 2. They were given igmesine (10, 30 mg/kg ip) and/or compound 3b (10 mg/kg ip) 20 min before the session on Day 2. NE-100 (10 mg/kg ip) was injected 10 min before igmesine and compound 3b. Immobility was measured during the last 5 minutes of the session. The vehicle solution was distilled water. F(6.90)=5.59, p<0.0001; ***p<0.001 vs. group V, ##p<0.01 vs. group V/Igmesine (10)+3B (5), Dunnett test.

[5] = test system: mice treated with Aβ25-35; conditions: IP; Aβ25-35 model; cited from earlier work
[6] = antagonist at the two doses tested (1 or 3 mg/kg IP) with 3b 0.1 mg/kg IP
[7] = antagonist 1 mg/kg IP with 3b 0.1 mg/kg IP

Question: Which “criterion of efficacy: 50% level of the effect between ScAβ and Aβ25-35 animals (spontaneous alternation, step-through latency, DCF fluorescence)” value [1] does the source give for `CC1(C)COP(=O)(c2ccncc2)C(C)(C)N1` (racemic) [Compound 3l, (±)-2-(Pyridin-4-yl)-2-oxo-3,3,5,5-tetramethyl-[1,4,2]-oxazaphosphinane] here?
Answer: The value was “met the criterion for the 3 parameters”.

Question: For `CC1(C)COP(=O)(c2cncnc2)C(C)(C)N1` (racemic) [Compound 3n, (±)-2-(Pyrimidin-5-yl)-2-oxo-3,3,5,5-tetramethyl-[1,4,2]-oxazaphosphinane], which “criterion of efficacy: 50% level of the effect between ScAβ and Aβ25-35 animals (spontaneous alternation, step-through latency, DCF fluorescence)” value [1] is on record?
Answer: The value was “met the criterion for the 3 parameters”.

Question: For `CO[C@H]1CC=C2CCN3CCC4=C(CC(=O)OC4)[C@]23C1` [DhßE, dihydro-β-erythroidine], which “antagonism of the anti-amnesic effect of compound 3b, passive avoidance” value (from here on “antagonism … passive avoidance”) [2, 6] is on record?
Answer: Its value is “ineffective”.

Question: What about the “antagonism of the anti-amnesic effect of compound 3b, spontaneous alternation” value (“antagonism … spontaneous alternation” for short) [3, 6] of the same molecule?
Answer: The value was “ineffective”.

Question: With `CCN1C[C@]2(COC(=O)c3ccccc3N3C(=O)C[C@H](C)C3=O)CC[C@H](OC)[C@@]34[C@@H]5C[C@H]6[C@H](OC)[C@@H]5[C@](O)(C[C@@H]6OC)[C@@](O)([C@@H](OC)[C@H]23)[C@@H]14` [MLA, methyllycaconitine] as the molecule, how does the “antagonism … passive avoidance” value [2, 7] read?
Answer: Its value is “attenuated the effect”.

Question: And the “antagonism … spontaneous alternation” value ([3]; antagonist 3 mg/kg IP with 3b 0.1 mg/kg IP)?
Answer: Its value is “blocked the anti-amnesic effect of compound 3b”.

Question: With `CCCN(CCC)CCc1ccc(OC)c(OCCc2ccccc2)c1` [NE100] as the molecule, how does the “blockade of the antidepressant effect of compound 3b” value ([4]; NE-100 10 mg/kg ip, 10 min before 3b 10 mg/kg ip) read?
Answer: Its value is “blocked”.

Question: And the “antagonism … passive avoidance” value [2, 7]?
Answer: Its value is “attenuated the effect”.

Question: What about the “antagonism … spontaneous alternation” value [3, 7] of the same molecule?
Answer: Its value is “blocked the effect of compound 3b”.

Question: With `CCC(C/C=C/c1ccccc1)(c1ccccc1)N(C)CC1CC1` (centres unmarked) [igmesine] as the molecule, how does the “activity in forced swim test” value ([4]; 10 mg/kg) read?
Answer: Its value is “not active”.

Question: With `CC12CC3CC(C)(C1)CC(N)(C3)C2` [memantine] as the molecule, how does the “active dose of reference molecules in this model” value [5] read?
Answer: The value was 1 mg/kg.
